In ChEMBL document CHEMBL4229450, “The synthetic chalcone derivative 2-hydroxy-3',5,5'-trimethoxychalcone induces unfolded protein response-mediated apoptosis in A549 lung cancer cells” (Bioorg Med Chem Lett, 2018):
Active and inactive are the calls of the source. The calls are words filed in the database; no cut-off is given here.

Columns and labels:
A549 [1] = test: Induction of ER stress-activated unfolded protein response pathway in human A549 cells assessed as increase in ATF4 expression at 20 uM after 6 hrs by immunoblot analysis; type: functional, cell-based
A549 [2] = test: Induction of ER stress-activated unfolded protein response pathway in human A549 cells harboring pFA-CHOP-GAL4/p-GAL4-DBD-Luc assessed as increase in CHOP trans-acting activity after 12 hrs by luciferase reporter gene assay; type: functional, cell-based
A549 [3] = test: Induction of apoptosis in human A549 cells assessed as increase in cleaved caspase-7 expression at 20 uM after 12 hrs by immunoblot analysis; type: functional, cell-based
A549 [4] = test: Induction of apoptosis in human A549 cells assessed as increase in cleaved PARP expression at 20 uM after 12 hrs by immunoblot analysis; type: functional, cell-based
NCI-H460 = test: Anticlonogenic activity against human NCI-H460 cells at 20 uM after 7 days by crystal violet staining based assay; type: functional, cell-based
A549 [5] = test: Induction of ER stress-activated unfolded protein response pathway in human A549 cells assessed as increase in IRE1alpha-mediated splicing of XBP1 mRNA by measuring increase in 540-base pair fragments at 20 uM after 12 hrs by RT-PCR analysis; type: functional, cell-based
A549 [6] = test: Induction of ER stress-activated unfolded protein response pathway in human A549 cells assessed as increase in CHOP expression at 20 uM after 6 to 12 hrs by immunoblot analysis; type: functional, cell-based
A549 [7] = test: Cell cycle arrest in human A549 cells assessed as accumulation at G1 phase at 20 uM after 24 hrs by propidium iodide staining based flow cytometry (reference value: 57%); type: functional
A549 [8] = test: Induction of ER stress-activated unfolded protein response pathway in human A549 cells assessed as accumulation of IRE1alpha protein level at 20 uM after 12 hrs by immunoblot analysis; type: functional, cell-based
MCF-12A = test: Induction of apoptosis in human MCF12A cells assessed as increase in cleaved PARP expression at 20 uM after 12 hrs by immunoblot analysis; type: cell-based
A549 [9] = test: Induction of ER stress-activated unfolded protein response pathway in human A549 cells assessed as increase in IRE1alpha-mediated splicing of XBP1 mRNA by measuring increase in 540-base pair fragments at 20 uM within 3 hrs by RT-PCR analysis; type: functional, cell-based
A549 [10] = test: Growth inhibition of human A549 cells assessed as cell viability at 5 uM after 24 hrs by CCK8 assay relative to control; type: functional; conditions: A549, 24 h, read-out: Activity
A549 [11] = test: Induction of ER stress-activated unfolded protein response pathway in human A549 cells assessed as increase in Bim expression at 20 uM after 12 hrs by immunoblot analysis; type: functional, cell-based
A549 [12] = test: Induction of apoptosis in human A549 cells assessed as increase in cleaved caspase-9 expression at 20 uM after 12 hrs by immunoblot analysis; type: functional, cell-based
A549 [13] = test: Induction of apoptosis in human A549 cells assessed as nuclear condensation and fragmentation at 20 uM after 18 hrs by Alexa Fluor-488/Hoechst 33258 staining based fluorescence microscopic method; type: functional, cell-based
A549 [14] = test: Induction of apoptosis in human A549 cells assessed as disruption of microtubule organization at 20 uM after 18 hrs by Alexa Fluor-488/Hoechst 33258 staining based fluorescence microscopic method; type: functional, cell-based
A549 [15] = test: Cell cycle arrest in human A549 cells assessed as accumulation at sub-G1 phase at 20 uM after 24 hrs by propidium iodide staining based flow cytometry (reference value: 2 to 2.3%); type: functional
A549 [16] = test: Growth inhibition of human A549 cells assessed as cell viability at 20 uM after 24 hrs by CCK8 assay relative to control; type: functional; conditions: A549, 24 h, read-out: Activity
A549 [17] = test: Induction of ER stress-activated unfolded protein response pathway-mediated apoptosis in human A549 cells assessed as increase in cleaved PARP expression at 20 uM pre-treated with stress inhibitor 4-PBA before compound addition by immunoblot analysis; type: functional, cell-based
A549 [18] = test: Induction of ER stress-activated unfolded protein response pathway in human A549 cells assessed as increase in IRE1alpha-mediated splicing of XBP1 by measuring increase in XBP1 (56 kDa) level at 20 uM after 6 to 12 hrs by immunoblot analysis; type: functional, cell-based
A549 [19] = test: Anticlonogenic activity against human A549 cells at 20 uM after 7 days by crystal violet staining based assay; type: functional, cell-based
A549 [20] = test: Induction of ER stress-activated unfolded protein response pathway in human A549 cells assessed as accumulation of GRP78 protein level at 20 uM after 12 hrs by immunoblot analysis; type: functional, cell-based
[21] = target: T1, Eukaryotic translation initiation factor 2-alpha kinase 3 (Homo sapiens) (UniProt Q9NZJ5); test: Induction of ER stress-activated unfolded protein response pathway in human A549 cells assessed as increase in PERK phosphorylation at Thr981 residue at 20 uM up to 6 hrs by immunoblot analysis; type: cell-based
T1 sequence (whole entry): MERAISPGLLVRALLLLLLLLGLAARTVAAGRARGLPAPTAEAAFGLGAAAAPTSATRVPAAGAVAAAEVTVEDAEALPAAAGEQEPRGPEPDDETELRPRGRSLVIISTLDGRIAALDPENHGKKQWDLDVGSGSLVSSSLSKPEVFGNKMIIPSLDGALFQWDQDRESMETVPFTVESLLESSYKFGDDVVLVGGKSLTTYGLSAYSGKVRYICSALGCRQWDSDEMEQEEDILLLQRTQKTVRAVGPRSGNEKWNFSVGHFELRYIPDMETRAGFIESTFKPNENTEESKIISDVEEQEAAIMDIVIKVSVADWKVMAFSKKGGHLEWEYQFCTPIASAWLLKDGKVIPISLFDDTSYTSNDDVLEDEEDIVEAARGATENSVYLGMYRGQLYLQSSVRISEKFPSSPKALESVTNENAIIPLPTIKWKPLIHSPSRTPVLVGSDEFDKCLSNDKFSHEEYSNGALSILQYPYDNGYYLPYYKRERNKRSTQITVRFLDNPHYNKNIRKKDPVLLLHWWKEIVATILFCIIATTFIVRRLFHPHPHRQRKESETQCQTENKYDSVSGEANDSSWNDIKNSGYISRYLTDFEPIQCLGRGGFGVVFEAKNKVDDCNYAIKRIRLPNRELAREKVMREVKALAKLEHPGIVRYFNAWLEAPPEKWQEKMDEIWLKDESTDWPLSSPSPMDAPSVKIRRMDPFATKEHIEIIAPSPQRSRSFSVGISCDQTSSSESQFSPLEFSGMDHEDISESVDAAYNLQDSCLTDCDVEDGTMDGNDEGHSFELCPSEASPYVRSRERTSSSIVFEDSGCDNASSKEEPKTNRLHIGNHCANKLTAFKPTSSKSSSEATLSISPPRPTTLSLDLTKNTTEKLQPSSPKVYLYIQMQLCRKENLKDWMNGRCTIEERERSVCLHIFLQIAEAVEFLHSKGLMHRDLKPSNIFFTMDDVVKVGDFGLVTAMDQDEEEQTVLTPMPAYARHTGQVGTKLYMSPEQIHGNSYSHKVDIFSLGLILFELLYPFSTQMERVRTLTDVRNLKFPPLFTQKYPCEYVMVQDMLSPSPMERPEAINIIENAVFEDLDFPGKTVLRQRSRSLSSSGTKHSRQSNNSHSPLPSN

A549 [22] = test: Growth inhibition of human A549 cells assessed as cell viability at 10 uM after 24 hrs by CCK8 assay relative to control; type: functional; conditions: A549, 24 h, read-out: Activity
A549 [23] = test: Induction of ER stress-activated unfolded protein response pathway in human A549 cells assessed as increase in IRE1alpha-mediated splicing of XBP1 mRNA by measuring increase in 279-/261-base pair fragments at 20 uM within 3 hrs by RT-PCR analysis; type: functional, cell-based
NCI-H1299 = test: Anticlonogenic activity against human NCI-H1299 cells at 20 uM after 7 days by crystal violet staining based assay; type: functional, cell-based
A549 [24] = test: Induction of apoptosis in human A549 cells assessed as increase in cleaved caspase-7 expression at 20 uM pre-treated with pan-caspase inhibitor zVAD-FMK fopr 30 mins before compound incubation for 12 hrs by immunoblot analysis; type: functional, cell-based
A549 [25] = test: Induction of apoptosis in human A549 cells assessed as late apoptotic cells at 20 uM after 24 hrs by Annexn V-FITC/propidium iodide staining based flow cytometry (reference value: 3%); type: functional
A549 [26] = test: Cell cycle arrest in human A549 cells assessed as accumulation at G2/M phase at 20 uM after 24 hrs by propidium iodide staining based flow cytometry (reference value: 14.8 to 15%); type: functional
A549 [27] = test: Induction of apoptosis in human A549 cells assessed as increase in cleaved PARP expression at 20 uM pre-treated with pan-caspase inhibitor zVAD-FMK fopr 30 mins before compound incubation for 12 hrs by immunoblot analysis; type: functional, cell-based
A549 [28] = test: Induction of apoptosis in human A549 cells assessed as live cells at 20 uM after 24 hrs by Annexn V-FITC/propidium iodide staining based flow cytometry (reference value: 83%); type: functional
MDA-MB-231 = test: Induction of apoptosis in human MDA-MB-231 cells assessed as increase in cleaved PARP expression at 20 uM after 12 hrs by immunoblot analysis; type: functional, cell-based
A549 [29] = test: Induction of apoptosis in human A549 cells assessed as increase in cleaved caspase-7 expression at 20 uM after 18 hrs by Alexa Fluor-488/Hoechst 33258 staining based fluorescence microscopic method; type: functional, cell-based
A549 [30] = test: Induction of apoptosis in human A549 cells assessed as necrotic cells at 20 uM after 24 hrs by Annexn V-FITC/propidium iodide staining based flow cytometry (reference value: 10%); type: functional
A549 [31] = test: Induction of ER stress-activated unfolded protein response pathway in human A549 cells assessed as increase in IRE1alpha-mediated splicing of XBP1 mRNA by measuring increase in 540-base pair fragments at 20 uM after 24 hrs by RT-PCR analysis; type: functional, cell-based
A549 [32] = test: Cell cycle arrest in human A549 cells assessed as accumulation at S phase at 20 uM after 24 hrs by propidium iodide staining based flow cytometry (reference value: 25.6 to 26%); type: functional
A549 [33] = test: Induction of ER stress-activated unfolded protein response pathway-mediated apoptosis in human A549 cells assessed as increase in cleaved caspase-7 expression at 20 uM pre-treated with stress inhibitor 4-PBA before compound addition by immunoblot analysis; type: functional, cell-based
A549 [34] = test: Induction of apoptosis in human A549 cells assessed as early apoptotic cells at 20 uM after 24 hrs by Annexn V-FITC/propidium iodide staining based flow cytometry (reference value: 5%); type: functional

COc1cc(/C=C/C(=O)c2cc(OC)ccc2O)cc(OC)c1
Activity (A549 [1]): Active | Activity (A549 [2]): Dose-dependent effect | Activity (A549 [3]): Active | Activity (A549 [4]): Active | Activity (NCI-H460): Active | Activity (A549 [5]): Active | Activity (A549 [6]): Active | Activity (A549 [7]): 29.8 - 30% | Activity (A549 [8]): Active | Activity (MCF-12A): Non-Toxic | Activity (A549 [9]): Active | viability at 5 µM (A549 [10]): 90.1% | Activity (A549 [11]): Active | Activity (A549 [12]): Active | Activity (A549 [13]): Active | Activity (A549 [14]): Active | Activity (A549 [15]): 29.6 - 30% | viability at 20 µM (A549 [16]): 50.8% | Activity (A549 [17]): Active | Activity (A549 [18]): Active | Activity (A549 [19]): Active | Activity (A549 [20]): Active | Activity [21]: Active | viability at 10 µM (A549 [22]): 83.9% | Activity (A549 [23]): Active | Activity (NCI-H1299): Active | Activity (A549 [24]): inactive | Activity (A549 [25]): 16% | Activity (A549 [26]): 14 - 14.1% | Activity (A549 [27]): inactive | Activity (A549 [28]): 56% | Activity (MDA-MB-231): Active | Activity (A549 [29]): Active | Activity (A549 [30]): 9% | Activity (A549 [31]): inactive | Activity (A549 [32]): 26 - 26.5% | Activity (A549 [33]): Active | Activity (A549 [34]): 18%
